What was measured:
[1] = AE maximal score at Adenosine A1 receptor
[2] = AE maximal score at Adenosine A3 receptor
[3] = AE maximal score at Adenosine A2A receptor

COc1ccc2c(c1)CCc1sc(N)nc1-2
EC50 [1]: 0.002 µM

COc1cc2c(cc1OC)-c1nc(N)sc1C2
EC50 [2]: 794 µM
EC50 [3]: 1 pM

CC(=O)Oc1ccc2c(c1)CCc1sc(N)nc1-2
EC50 [1]: 158 µM

Source: BindingDB's records for doi:10.1016/s0960-894x(02)00236-6 (University of Virginia, 2002)
